In ChEMBL document CHEMBL3792286, “A convenient and efficient approach to polyfluorosalicylic acids and their tuberculostatic activity” (Bioorg Med Chem Lett, 2016) one finds MIC and LD50 data, which are given here for seven molecules.

Converted amounts (≈) assume the structure as drawn.

As a reminder, the LD50 is the dose at which mortality reaches 50%. A low value points to greater toxicity.

Data set [1] concerns Mycobacterium tuberculosis. In words: microbe, parasite or virus in culture. The settings on record: H37Rv, 240 h.
Description: Tuberculostatic activity against Mycobacterium tuberculosis H37Rv assessed as induction of penetration size stunting incubated for 10 days by vertical diffusion method
Data set [2] in a line: Toxicity in healthy mouse administered as single peroral dose measured after 14 days. Type of data set: organism-based. Conditions: in vivo, po.
In data set [3] the test system is Mycobacterium tuberculosis. The data set can be described thus: Antimicrobial activity against Mycobacterium tuberculosis. Format: functional.
A further data set deals with Mycobacterium avium. Type of data set: functional. The settings on record: 240 h.
For the next data set, the system named is Mycolicibacter terrae. Type of data set: functional. Conditions: 240 h.

In data set [1], `O=C(O)c1cc(F)c(F)c(F)c1O` returned an MIC of 6.5 µg/mL (≈ 33.8 µM). The molecule further displayed an LD50 at 336 h in data set [2] above 100 mg/kg.

Take `Nc1ccc(C(=O)O)c(O)c1` [AMINOSALICYLIC ACID]: the MIC was above 250 µg/mL in data set [3], 0.3 µg/mL (≈ 1.96 µM) in data set [1] and 32 µg/mL (≈ 209 µM) with Mycobacterium avium. The LD50 at 336 h in data set [2] turned out to be 4000 mg/kg.

For the molecule `NNC(=O)c1ccncc1` [ISONIAZID], the MIC (with Mycolicibacter terrae; in data set [1]; in the data set with Mycobacterium avium) was 0.1 µg/mL (≈ 0.729 µM) in each case. For the same molecule, the LD50 at 336 h in data set [2] was determined as 100 mg/kg.

On to `O=C(O)c1ccc(F)c(F)c1O`, for which the MIC (against Mycolicibacter terrae; in data set [1]; with Mycobacterium avium) was 1.5 µg/mL (≈ 8.62 µM) each time. The molecule further returned an LD50 at 336 h in data set [2] above 150 mg/kg.

In the case of `CC1COc2c(N3CCN(C)CC3)c(F)cc3c(=O)c(C(=O)O)cn1c23` (stereo not given) [OFLOXACIN], the MIC (with Mycolicibacter terrae; in data set [1]; in the data set with Mycobacterium avium) was 0.1 µg/mL (≈ 0.277 µM) each time.

`O=C(O)c1cc(F)c(F)cc1O`: the MIC (against Mycolicibacter terrae; in data set [1]; in the data set with Mycobacterium avium) was 0.7 µg/mL (≈ 4.02 µM) each time. In data set [2], this molecule yielded an LD50 at 336 h above 300 mg/kg.

For `O=C(O)c1c(O)c(F)c(F)c(F)c1F`, the MIC (with Mycolicibacter terrae; in data set [1]; against Mycobacterium avium) was 0.7 µg/mL (≈ 3.33 µM) throughout. In data set [2], this molecule yielded an LD50 at 336 h of 100 mg/kg.
